In patent US20220362199A1, “ENRICHED POLYUNSATURATED FATTY ACID COMPOSITIONS” (NUSEED NUTRITIONAL US INC., priority 2019, published 2022):

Tested on: LPS-stimulated human peripheral blood mononuclear cells (PBMCs)
Assay: In vitro inhibition of LPS-stimulated cytokine/chemokine/growth factor production (Milliplex 38-plex)
Assay type: cell-based
Settings: for inhibitory activity on inflammatory cytokines: preliminary study, LPS-stimulated PBMC; for Inhibitory scale (0-5): D1 PBMC, 1 ng/mL LPS, 0 = no or very minimal inhibition, 1 to 2.5 = IFNγ, IL-1 series, IP-10, MCP-1, 3 = TNFα also, above 3 = some T cell cytokines, 5 = all cytokines inhibited; for immunomodulatory response type: approximately 10 μM, stimulatory = signal above 130%, inhibitory = signal below 70% of LPS-stimulated control (no FFA added)

CC/C=C\C/C=C\C/C=C\C/C=C\C/C=C\CCCCCC(=O)O [DPAn-3, Docosapentaenoic acid n-3]
inhibitory activity on inflammatory cytokines (fatty acid as primary component or at higher amount in the preparation): significant inhibitory activity

CC/C=C\C/C=C\C/C=C\C/C=C\C/C=C\CCCCCC(=O)O [Syn DPA, DPA]
Inhibitory scale (0-5) (30 μM FFA preparation): 4.0 | immunomodulatory response type: both stimulatory and inhibitory responses

ETA [Syn ETA]
inhibitory effect on more than half the analytes (30 μM dose, >50% reduction compared to LPS-stimulated control): strong inhibitory effect | Inhibitory scale (0-5) ([…]): 4.75 | immunomodulatory response type: both stimulatory and inhibitory responses

Eicosatetraenoic acid [ETA]
inhibitory activity on inflammatory cytokines ([…]): significant inhibitory activity
